Measurements reported in PubChem BioAssay (NCI).
Values joined by “and” are separate entries in the source; they are usually repeats but may differ in a detail not shown here. Identical values can stand only once.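 Cells were grown in 96-well plates and exposed to each compound for 48 hours at five concentrations; endpoints were interpolated linearly between bracketing concentrations, or set to the highest concentration if not reached. GI50: concentration for 50% inhibition of growth. TGI is the concentration that stops growth completely.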

Tests used:
Experiment in all cases: NCI tumour cell line growth inhibition, 48 h; in the data active means GI50 below about 0.43 µM; inactive means the rest
[1] = test system: PC-3 prostate
[2] = test system: NCI-H23 lung
[3] = test system: MDA-MB-231 breast
[4] = test system: DU-145 prostate
[5] = test system: SNB-19 CNS
[6] = test system: K-562 leukemia
[7] = test system: HS 578T breast
[8] = test system: SW-620 colon
[9] = test system: SK-OV-3 ovarian
[10] = test system: A498 renal
[11] = test system: CCRF-CEM leukemia
[12] = test system: TK-10 renal
[13] = test system: M14 melanoma
[14] = test system: EKVX NSCLC
[15] = test system: 786-0 renal
[16] = test system: SK-MEL-5 melanoma
[17] = test system: T-47D breast
[18] = test system: OVCAR-4 ovarian
[19] = test system: SF-268 CNS
[20] = test system: SNB-75 CNS
[21] = test system: MOLT-4 leukemia
[22] = test system: HOP-92 NSCLC
[23] = test system: SK-MEL-28 melanoma
[24] = test system: NCI/ADR-RES ovarian
[25] = test system: NCI-H522 lung
[26] = test system: SK-MEL-2 melanoma
[27] = test system: U251 CNS
[28] = test system: OVCAR-5 ovarian
[29] = test system: ACHN renal
[30] = test system: BT-549 breast
[31] = test system: SR leukemia
[32] = test system: IGROV1 ovarian
[33] = test system: A549 NSCLC
[34] = test system: MDA-MB-435
[35] = test system: LOX IMVI melanoma
[36] = test system: RPMI-8226 leukemia
[37] = test system: SF-539 CNS
[38] = test system: UO-31 renal
[39] = test system: MDA-N
[40] = test system: MCF7 breast
[41] = test system: KM12 colon
[42] = test system: HOP-62 NSCLC
[43] = test system: HCT-15 colon
[44] = test system: HT29 colon
[45] = test system: COLO 205 colon
[46] = test system: HCT-116 colon
[47] = test system: HCC-2998 colon
[48] = test system: OVCAR-8 ovarian
[49] = test system: UACC-257 melanoma
[50] = test system: CAKI-1 renal
[51] = test system: SF-295 CNS
[52] = test system: SN12C renal
[53] = test system: NCI-H460 lung
[54] = test system: NCI-H226 lung
[55] = test system: OVCAR-3 ovarian
[56] = test system: RXF 393 renal
[57] = test system: MALME-3M melanoma
[58] = test system: HL-60(TB) leukemia

COc1ccc(/C=C2/N=C(N/N=C\C(O)C(O)C(O)CO)NC2=O)cc1 (configuration not stated)
> 100 µM: TGI [1] | TGI [2] | TGI [3] | TGI [4] | TGI [5] | TGI [6] | TGI [7] | TGI [8] | TGI [9] | TGI [10] | TGI [11] | TGI [12] | TGI [13] | TGI [14] | TGI [15] | TGI [16] | TGI [17] | TGI [18] | TGI [19] | TGI [20] | TGI [21] | TGI [22] | TGI [23] | TGI [24] | TGI [25] | TGI [26] | TGI [27] | TGI [28] | TGI [29] | TGI [30] | TGI [31] | TGI [32] | TGI [33] | TGI [34] | TGI [35] | TGI [36] | TGI [38] | TGI [39] | TGI [40] | TGI [41] | TGI [42] | TGI [43] | TGI [44] | TGI [45] | TGI [46] | TGI [47] | TGI [48] | TGI [49] | TGI [50] | TGI [51] | TGI [52] | TGI [53] | TGI [54] | TGI [56] | TGI [57] | TGI [58]
40.1 µM: TGI [37]
inactive: GI50 [1] > 100 µM and 39.3 µM | GI50 [2] > 100 µM and 42.1 µM | GI50 [5] > 100 µM and 48.4 µM | GI50 [6] 33 µM | GI50 [10] > 100 µM and 32.6 µM | GI50 [16] > 100 µM and 41.6 µM | GI50 [17] 87.7 µM and 33.2 µM | GI50 [18] 40.9 µM and > 100 µM | GI50 [20] > 100 µM and 41.4 µM | GI50 [23] > 100 µM and 31.3 µM | GI50 [25] > 100 µM and 34.2 µM | GI50 [41] > 100 µM and 26.9 µM | GI50 [42] > 100 µM and 49.6 µM | GI50 [55] > 100 µM and 24.3 µM
> 100 µM and 67.8 µM: TGI [55]
